Active and inactive are the calls of the source. The calls are words filed in the database; no cut-off is given here.
Tests used:
SW1573 = assay: Antiproliferative activity against human SW1573 cells assessed as reduction in cell growth; type: functional
A549 = assay: Antiproliferative activity against human A549 cells assessed as reduction in cell growth; type: functional
HBL-100 = assay: Antiproliferative activity against human HBL-100 cells assessed as reduction in cell growth; type: functional
HeLa = assay: Antiproliferative activity against human HeLa cells assessed as reduction in cell growth; type: functional
[1] = Antiproliferative activity against human hTERT-BJ cells assessed as reduction in cell growth; type: toxicity, cell-based
WiDr = assay: Antiproliferative activity against human WiDr cells assessed as reduction in cell growth; type: functional
T47D = assay: Antiproliferative activity against human T47D cells assessed as reduction in cell growth; type: functional
[2] = Antiproliferative activity against human MRC5 cells assessed as reduction in cell growth measured after 48 hrs by sulforhodamine B assay; type: toxicity, cell-based
NCI-H460 [3] = assay: Cell cycle arrest in human NCI-H460 cells assessed as increase in accumulation at G2/M phase at 600 nM measured after 48 hrs by propidium iodide staining based flow cytometry analysis; type: functional
NCI-H460 [4] = assay: Cell cycle arrest in human NCI-H460 cells assessed as increase in accumulation at S phase at 600 nM measured after 48 hrs by propidium iodide staining based flow cytometry analysis; type: functional
NCI-H460 [5] = assay: Induction of apoptosis in human NCI-H460 cells assessed as increase in necrotic cells at 600 nM incubated for 48 hrs by annexin-V-FITC and PI staining based flow cytometry analysis (reference value: 2 %); type: functional
NCI-H460 [6] = assay: Cell cycle arrest in human NCI-H460 cells assessed as decrease in accumulation at G1 phase at 600 nM measured after 48 hrs by propidium iodide staining based flow cytometry analysis; type: functional
NCI-H460 [7] = assay: Antiproliferative activity against human multi-drug resistant NCI-H460/R cells overexpressing P-glycoprotein assessed as reduction in cell growth measured after 48 hrs by sulforhodamine B assay; type: functional
NCI-H460 [8] = assay: Cell cycle arrest in human NCI-H460 cells assessed as increase in accumulation at subG1 phase at 600 nM measured after 48 hrs by propidium iodide staining based flow cytometry analysis; type: functional
NCI-H460 [9] = assay: Induction of mitochondrial membrane potential loss in human NCI-H460 cells assessed as depolarization of mitochondrial membrane at 600 nM incubated for 24 hrs by JC-1 staining based flow cytometry assay; type: functional, cell-based
NCI-H460 [10] = assay: Induction of mitochondrial membrane potential loss in human NCI-H460 cells assessed as depolarization of mitochondrial membrane at 600 nM incubated for 48 hrs by JC-1 staining based flow cytometry assay; type: functional, cell-based
NCI-H460 [11] = assay: Antiproliferative activity against human multi-drug resistant NCI-H460/R cells overexpressing P-glycoprotein assessed as cell growth inhibition in presence of tariquidar measured after 48 hrs by sulforhodamine B assay; type: functional; conditions: dose 0.01-100 µM
[12] = Resistant index, ratio of GI50 for human multi-drug resistant NCI-H460/R cells to GI50 for human NCI-H460 cells; type: functional
NCI-H460 [13] = assay: Antiproliferative activity against human NCI-H460 cells assessed as reduction in cell growth measured after 48 hrs by sulforhodamine B assay; type: functional

| SMILES | GI50 (SW1573) | GI50 (A549) | GI50 (HBL-100) | GI50 (HeLa) | GI50 [1] | GI50 (WiDr) | GI50 (T47D) | GI50 at 48 h [2] | Activity (NCI-H460 [3]) | Activity (NCI-H460 [4]) | Activity (NCI-H460 [5]) | Activity (NCI-H460 [6]) | GI50 (NCI-H460 [7]) | Activity (NCI-H460 [8]) | Activity (NCI-H460 [9]) | Activity (NCI-H460 [10]) | GI50 (NCI-H460 [11]) | RatioGI50 [12] | GI50 (NCI-H460 [13]) |
| --- | --- | --- | --- | --- | --- | --- | --- | --- | --- | --- | --- | --- | --- | --- | --- | --- | --- | --- | --- |
| c1ccc(COc2ccc(CCOCCCCCCCCCCCC[P+](c3ccccc3)(c3ccccc3)c3ccccc3)cc2)cc1 | 0.42 µM | 0.45 µM | 0.37 µM | 0.6 µM | 3.3 µM | 0.77 µM | 0.57 µM | – | – | – | – | – | – | – | – | – | – | – | – |
| O=c1[nH]cc(F)c(=O)[nH]1 [FLUOROURACIL] | 3.3 µM | 2.2 µM | 4.4 µM | 16 µM | 5.5 µM | 49 µM | 43 µM | – | – | – | – | – | – | – | – | – | – | – | – |
| c1ccc([P+](CCCCCOCCc2ccc3c(c2)OCO3)(c2ccccc2)c2ccccc2)cc1 | 0.64 µM | 1.4 µM | 0.68 µM | 0.54 µM | 37 µM | 0.33 µM | 0.36 µM | – | – | – | – | – | – | – | – | – | – | – | – |
| [Br-].c1ccc([P+](CCCCCCOCCc2ccc3c(c2)OCO3)(c2ccccc2)c2ccccc2)cc1 | 0.35 µM | 0.87 µM | 0.58 µM | 0.35 µM | 43 µM | 0.24 µM | 0.27 µM | 62.7 µM | Active | Active | 27% | Active | 3.6 µM | Active | Active | Active | 0.59 µM | 6 | 0.6 µM |
| COc1ccc(CCOCCCCCCCCCCCC[P+](c2ccccc2)(c2ccccc2)c2ccccc2)cc1OC | 0.17 µM | 0.026 µM | 0.26 µM | 0.21 µM | 4.3 µM | 0.22 µM | 0.21 µM | – | – | – | – | – | – | – | – | – | – | – | – |
| c1ccc(COc2ccc(CCOCCCCCC[P+](c3ccccc3)(c3ccccc3)c3ccccc3)cc2)cc1 | 0.12 µM | 0.12 µM | 0.25 µM | 0.18 µM | 3.1 µM | 0.24 µM | 0.2 µM | – | – | – | – | – | – | – | – | – | – | – | – |
| c1ccc(CCOCCCCC[P+](c2ccccc2)(c2ccccc2)c2ccccc2)cc1 | 0.33 µM | 0.37 µM | 0.44 µM | 0.31 µM | 32 µM | 0.22 µM | 0.22 µM | – | – | – | – | – | – | – | – | – | – | – | – |
| COc1ccc(CCOCCCCC[P+](c2ccccc2)(c2ccccc2)c2ccccc2)cc1 | 0.37 µM | 0.4 µM | 0.52 µM | 0.39 µM | 28 µM | 0.33 µM | 0.31 µM | – | – | – | – | – | – | – | – | – | – | – | – |
| c1ccc(COc2ccc(CCOCCCCC[P+](c3ccccc3)(c3ccccc3)c3ccccc3)cc2)cc1 | 0.089 µM | 0.088 µM | 0.084 µM | 0.077 µM | 2.9 µM | 0.18 µM | 0.19 µM | – | – | – | – | – | – | – | – | – | – | – | – |
| COc1ccc(CCOCCCCCC[P+](c2ccccc2)(c2ccccc2)c2ccccc2)cc1OC | 0.49 µM | 0.74 µM | 0.55 µM | 0.42 µM | 34 µM | 0.38 µM | 0.46 µM | – | – | – | – | – | – | – | – | – | – | – | – |
| COc1ccc(CCOCCCCCCCCCCCC[P+](c2ccccc2)(c2ccccc2)c2ccccc2)cc1 | 0.25 µM | 0.18 µM | 0.34 µM | 0.32 µM | 3.6 µM | 0.32 µM | 0.29 µM | – | – | – | – | – | – | – | – | – | – | – | – |
| c1ccc([P+](CCCCCCCCCCCCOCCc2ccc3c(c2)OCO3)(c2ccccc2)c2ccccc2)cc1 | 0.17 µM | 0.059 µM | 0.21 µM | 0.22 µM | 4.6 µM | 0.19 µM | 0.18 µM | – | – | – | – | – | – | – | – | – | – | – | – |
| COc1ccc(CCOCCCCCC[P+](c2ccccc2)(c2ccccc2)c2ccccc2)cc1 | 0.22 µM | 0.26 µM | 0.37 µM | 0.27 µM | 30 µM | 0.23 µM | 0.2 µM | – | – | – | – | – | – | – | – | – | – | – | – |
| [Br-].c1ccc(CCOCCCCCC[P+](c2ccccc2)(c2ccccc2)c2ccccc2)cc1 | 0.16 µM | 0.13 µM | 0.26 µM | 0.17 µM | 35 µM | 0.14 µM | 0.14 µM | 15.3 µM | Active | Active | 37% | Active | 4.6 µM | Active | Active | Active | 0.61 µM | 8.1 | 0.57 µM |
| c1ccc(COc2ccc(CCOCCCCCC[P+](c3ccccc3)(c3ccccc3)c3ccccc3)cc2OCc2ccccc2)cc1 | 0.35 µM | 0.25 µM | 0.47 µM | 0.32 µM | 3.3 µM | 1 µM | 0.81 µM | – | – | – | – | – | – | – | – | – | – | – | – |
| c1ccc(COc2ccc(CCOCCCCCCCCCCCC[P+](c3ccccc3)(c3ccccc3)c3ccccc3)cc2OCc2ccccc2)cc1 | 0.32 µM | 0.17 µM | 0.24 µM | 0.33 µM | 3.5 µM | 0.45 µM | 0.5 µM | – | – | – | – | – | – | – | – | – | – | – | – |
| COc1ccc(CCOCCCCC[P+](c2ccccc2)(c2ccccc2)c2ccccc2)cc1OC | 2.1 µM | 3.4 µM | 4.2 µM | 2.3 µM | 57 µM | 1.5 µM | 2 µM | – | – | – | – | – | – | – | – | – | – | – | – |
| c1ccc(COc2ccc(CCOCCCCC[P+](c3ccccc3)(c3ccccc3)c3ccccc3)cc2OCc2ccccc2)cc1 | 0.23 µM | 0.13 µM | 0.2 µM | 0.27 µM | 3.5 µM | 0.31 µM | 0.31 µM | – | – | – | – | – | – | – | – | – | – | – | – |
| c1ccc(CCOCCCCCCCCCCCC[P+](c2ccccc2)(c2ccccc2)c2ccccc2)cc1 | 0.25 µM | 0.17 µM | 0.29 µM | 0.33 µM | 4.4 µM | 0.26 µM | 0.27 µM | – | – | – | – | – | – | – | – | – | – | – | – |
